US20180256616A1, “Compounds, Compositions and Methods for Prevention or Treatment of Liver and Lipid-Related Conditions” (Sivanaray, Inc., priority 2015, published 2018)

Columns and labels:
[1] = test system: HFD-fed rats injected with streptozotocin (STZ) to induce type 2 diabetes (T2DM); assay: Study 3 (BVISIV Study): HFD plus STZ type 2 diabetes rats, 200 mg/kg/day; format: in vivo
[2] = has been reported; model of accelerated aging; cited from earlier work

O=C[C@H](O)[C@@H](O)[C@@H](O)[C@H](O)C(=O)O [BVISIV 4, Galacturonic Acid]
lowering of glucose serum levels vs Group 2 ([1]; end of 6 weeks): most effective

O=C[C@H](O)[C@@H](O)[C@@H](O)[C@H](O)CO [BVISIV 5, Galactose]
reduction of serum ALT levels ([1]; HFD/T2DM rats): effective | reduction of serum LDL cholesterol levels ([1]; HFD/T2DM rats): effective | reduction of serum triglyceride levels ([1]; HFD/T2DM rats): effective | aging effect (cognitive and motor skills) [2]: deterioration of cognitive and motor skills

O=C[C@@H](O)[C@H](O)[C@H](O)CO [BVISIV 6, Arabinose]
comparative performance among formulations (triglycerides, LDL cholesterol, ALT) ([1]; HFD/T2DM rats): did not perform as well as the other formulations
